Test results: patent US9321772B2, “Substituted pyrazolo[3,4-D]pyrimidines and uses thereof” (The Regents of the University of California, priority 2011, dated 2016)
Entries after “also recorded” stand apart in the source; their conditions may differ.

How the values were obtained:
[1] = system: ptc>dRet^MEN2B flies; experiment: Drosophila ptc>dRetMEN2B viability assay; format: in vivo; details: for notum, scutellum and cuticle defects of ptc>dRetMEN2B adults: drug fed flies; for effect of reducing erk gene dosage on drug efficacy in viability assay: ptc>dRetMEN2B
Text: FIG. 1A. Suppression of Ret^MEN2B-induced developmental block and whole animal toxicity were scored based on number of embryos (n) that survived as pupae (x) and adults (y). Drugs were mixed into food and fed to flies starting at larval stages.
FIG. 1B. Percent viability of control or drug treated flies determined for pupae (x/n) and adults (y/n).
Described herein is a Drosophila MEN2B model in which an intracellular mutation in the Drosophila Ret ortholog (dRet) was targeted to the eye (Read, R. D. et al., Genetics, 2005. 171(3): p. 1057-81). […] The screen is conducted in developing drosophila embryos. Under normal circumstances, drosophila embryos pass through four developmental steps: embryo→larvae→pupae→adult. […] We calibrated the ptc>dRetMEN2B assay to permit 50% survival to pupariation and 0% survival to adulthood. Mutated forms of RET are believed to be causative in human thyroid cancers including multiple endocrine neoplasia types 2A and 2B (MEN2A and MEN2B). The screen identifies small molecules that (a) suppress the toxicity induced by oncogenic RET and (b) allow flies to develop to functional adults. […] 64(19): p. 7099-109; Sun, L. et al., J Med Chem, 2003. 46(7): p.

[2] = system: ptc>dRet^MEN2B wing cells; experiment: Wing-based assay for transformation and cell migration (ptc>dRetMEN2B); format: in vivo, Drosophila; details: oral administration
Text: FIG. 4E. Quantification of ptc>dRet^MEN2B phenotypes. Invasion was established by scoring for single/groups of GFP-labeled cells that relocated away from the ptc boundary (FIG. 4C, asterisks). Basal migration was scored as indentation of the apical surface (see FIG. 2B, arrows). Proliferation was scored as significant widening of the ptc boundary. The number of wings analyzed under each condition is indicated in brackets.
We previously developed a wing-based assay for transformation and cell migration that we utilized to explore Ras- and Src-based tumorigenesis (Vidal, M., D. E. Larson, and R. L. Cagan, Dev Cell, 2006. 10(1): p. 33-44). In this assay, the ptc-GAL4 driver directed oncogene expression in a stripe along the anterior-posterior axis; oncogene-based transformation led to over-proliferation, epithelial-to-mesenchymal transition (EMT), and cell migration away from the ptc domain.

[3] = target: T1, Ret kinase domain (Homo sapiens, UniProt P07949); experiment: In vitro kinase assay, Ret; format: biochemical
T1 construct: determined against a purified form of the Ret kinase domain
T1 sequence (P07949 724-1016 limits assumed): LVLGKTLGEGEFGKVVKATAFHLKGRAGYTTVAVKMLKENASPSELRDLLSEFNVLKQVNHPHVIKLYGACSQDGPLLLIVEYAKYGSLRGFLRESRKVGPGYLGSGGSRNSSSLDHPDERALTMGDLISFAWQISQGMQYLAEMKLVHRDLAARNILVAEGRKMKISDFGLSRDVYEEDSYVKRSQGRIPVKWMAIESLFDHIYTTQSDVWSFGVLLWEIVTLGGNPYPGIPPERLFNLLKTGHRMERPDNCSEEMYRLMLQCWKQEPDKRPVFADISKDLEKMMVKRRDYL
Method: FIG. 1D. […] Half maximal inhibitory concentrations (IC50) were determined against a purified form of the Ret kinase domain.
(§1) Using in vitro kinase assays we tested AD57, AD36, and AD58 at 1 μM for activity against approximately one-half of the human kinome (FIG. 1E): 165 Ser/Thr kinases, 91 Tyr kinases, and 10 PI kinases were assayed, totaling 266 kinases (244 distinct kinases plus 22 mutant isoforms; see FIG. 6A-6C, FIG. 7A-7F, and FIG. 8 for measured inhibition values).
(§2) At least three major pathways are required for dRet^MEN2B-mediated transformation: Ras, Src, and glucose metabolism/PI3K (FIG. 3A; Ref (Read, R. D. et al., Genetics, 2005. 171(3): p. 1057-81)). We utilized in vitro kinase assays to assess compound activity against relevant kinases from each of these pathways, specifically Ret, B-Raf, Src, Tor, and S6K (FIG. 3B).

[4] = target: Src (Homo sapiens, UniProt P12931); experiment: In vitro kinase assay, Src; format: biochemical; details: in vitro kinase profile, 1 μM
Chain of Src (P12931 whole entry): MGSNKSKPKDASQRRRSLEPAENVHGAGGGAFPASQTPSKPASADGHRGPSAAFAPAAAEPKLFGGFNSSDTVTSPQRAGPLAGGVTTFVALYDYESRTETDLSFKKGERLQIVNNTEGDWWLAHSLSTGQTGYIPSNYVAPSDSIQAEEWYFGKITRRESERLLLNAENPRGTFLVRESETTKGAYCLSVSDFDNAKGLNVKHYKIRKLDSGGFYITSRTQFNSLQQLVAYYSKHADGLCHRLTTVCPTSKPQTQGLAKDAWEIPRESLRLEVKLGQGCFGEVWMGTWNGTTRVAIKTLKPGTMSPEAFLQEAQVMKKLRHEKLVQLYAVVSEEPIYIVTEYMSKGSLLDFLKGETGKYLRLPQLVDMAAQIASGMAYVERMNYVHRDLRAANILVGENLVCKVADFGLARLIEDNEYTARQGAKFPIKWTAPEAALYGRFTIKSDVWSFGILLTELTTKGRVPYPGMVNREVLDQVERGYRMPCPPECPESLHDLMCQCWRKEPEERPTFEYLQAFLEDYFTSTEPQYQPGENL
Method: as §1, §2

[5] = target: S6K (Homo sapiens, UniProt P23443); experiment: In vitro kinase assay, S6K; format: biochemical; details: in vitro kinase profile, 1 μM
Chain of S6K (P23443 whole entry): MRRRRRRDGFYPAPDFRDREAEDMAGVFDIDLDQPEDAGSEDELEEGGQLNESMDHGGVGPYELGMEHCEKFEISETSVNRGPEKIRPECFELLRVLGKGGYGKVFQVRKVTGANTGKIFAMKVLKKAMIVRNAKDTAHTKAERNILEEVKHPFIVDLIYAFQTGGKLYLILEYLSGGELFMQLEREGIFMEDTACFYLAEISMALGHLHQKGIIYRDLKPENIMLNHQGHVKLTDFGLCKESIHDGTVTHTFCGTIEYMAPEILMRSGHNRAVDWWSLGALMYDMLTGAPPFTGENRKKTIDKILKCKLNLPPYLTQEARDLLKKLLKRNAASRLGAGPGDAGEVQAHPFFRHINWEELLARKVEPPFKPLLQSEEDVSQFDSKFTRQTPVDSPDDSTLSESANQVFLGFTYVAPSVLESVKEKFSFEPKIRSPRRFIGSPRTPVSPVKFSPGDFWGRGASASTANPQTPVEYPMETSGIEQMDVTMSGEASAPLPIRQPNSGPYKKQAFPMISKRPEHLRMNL
Method: as §1, §2

[6] = target: mTor (Homo sapiens, UniProt P42345); experiment: In vitro kinase assay, mTor; format: biochemical; details: in vitro kinase profile, 1 μM
Method: as §1, §2

[7] = system: MZ-CRC-1 (MEN2B) cancer cell line; experiment: MZ-CRC-1 cell viability (MTT assay); format: cell-based, human
[8] = system: TT (MEN2A) thyroid cancer cells; experiment: TT cell viability (MTT assay); format: cell-based, human
Method: FIG. 18A-18D. […] FIG. 18A. MEN2B (MZ) thyroid cancer cells were treated with the indicated concentrations of each inhibitor (7 days) and cell viability was quantitated by MTT assay. FIG. 18B. MEN2A (TT) thyroid cancer cells were treated with the indicated concentrations of each inhibitor (7 days) and cell viability was quantitated by MTT assay. FIG. 18C. […] Change in tumor volume was calculated per mouse. Values shown are the median percent change per group. 20 and 10 animals for vehicle and drug treated mice, respectively, were analyzed. FIG. 18D. Body weight measurements of AD80, Vandetanib (VD) and vehicle treated nude mice transplanted with TT cells. Values shown are the median of 20 and 10 animals for vehicle and drug treated mice, respectively.

[9] = system: MEN2A (TT) thyroid cancer cells; experiment: Immunoblot analysis of drug-treated TT cells; format: cell-based, human; details: for phospho-Ret and downstream biomarkers: 1 hour of treatment; for cell death (protein markers of apoptosis): 3 days, 2 μM
Method: FIG. 19. […] MEN2A (TT) and MEN2B (MZ) thyroid cancer cells were treated with the indicated drugs for 3 days at a final concentration of 2 μM. Cell lystates were immunoblotted for protein markers of apoptosis. Vandetanib (vand.) was included for comparison.
FIG. 20A-20B. […] FIG. 20A. MEN2B (MZ) and FIG. 20B. MEN2A (TT) thyroid cancer cells were treated with the indicated concentrations of drug. Following 1 hour of treatment, cells were harvested and lysates prepared for immunoblotting to detect the indicated proteins. VD=vandetanib; SF=sorafenib.

[10] = system: ER4 cells (ER4 subline of HCC827 cells resistant to erlotinib); experiment: Erlotinib sensitivity of ER4 cells with AXL inhibitor treatment; format: cell-based; details: 0.1, 1, 10 micromolar in combination with erlotinib
Text: FIG. 21A-21C. Overcoming acquired resistance through AXL inhibitor treatment. Erlotinib plus AD57, AD80, or AD81 in ER4 cells (ER4 subline of HCC827 cells that are resistant to erlotinib treatment). Legend: diamond symbols are DMSO control, square symbols are 0.1 micromolar of compound, triangle symbols are 1 micromolar of compound, x symbol are 10 micromolar of compound, all in combination with erlotinib.

[11] = oral administration, drug mixed into food

Structure (SMILES)	notum, scutellum and cuticle defects of ptc>dRetMEN2B adults [1]	rescue of ptc>dRetMEN2B viability (pupae, adults), in words [1, 11]	effect of reducing erk gene dosage on drug efficacy in viability assay [1]	basal phospho-Src in wing epithelium [2]	suppression of dRetMEN2B-induced proliferation, EMT, invasion/basal migration [2]	Ret inhibition, in words ([3]; in vitro kinase profile, 1 μM)	Src inhibition, in words [4]	S6K inhibition, in words [5]	mTor inhibition, in words [6]	inhibition of MZ-CRC-1 cell viability / proliferation, in words [7]	inhibition of TT cell viability / proliferation, in words [8]	phospho-Ret and downstream biomarkers [9]	cell death (protein markers of apoptosis) [9]	sensitivity to erlotinib [10]	animals rescued / developing to adulthood [1, 11]	effect of reducing dTor on drug efficacy/toxicity ([1]; ptc>dRetMEN2B dTor-/+)	potency for Ret in vitro ([3]; purified Ret kinase domain)	IC50, fold more potent than Sorafenib ([7]; MZ-CRC-1 cell viability)	IC50, fold lower than Vandetanib ([8]; TT cell line, dose-response)
CC(C)n1nc(-c2ccc(NC(=O)Nc3cc(C(F)(F)F)ccc3F)cc2)c2c(N)ncnc21 [AD80]	phenotypically normal	improved rescue relative to AD57	did not alter efficacy	potently blocked	significantly improved suppression; also recorded: potently blocked	inhibited	inhibited	inhibited	not and greatly reduced mTor activity and lack significant inhibitory activity	inhibited proliferation	inhibited proliferation	potent downregulation of phospho-Ret; also recorded: potent inhibitors	induce cell death	confer dose-dependent sensitivity to erlotinib					
CC(C)n1nc(-c2ccc(NC(=O)Nc3cccc(C(F)(F)F)c3)cc2)c2c(N)ncnc21 [AD57]	strongly suppressed; also recorded: complete suppression of notum and scutellum defects; also recorded: some cuticle defects	best single-agent hit; also recorded: potently suppressed	considerably enhanced the efficacy	suppressed phospho-Src in basal regions of the wing epithelium	potent in vivo suppression; also recorded: strongly suppressed		potent inhibitor; also recorded: strongly inhibited	potent inhibitor	potent inhibitor	most potent inhibition	most potent inhibition	potent inhibitors	induce cell death	confer dose-dependent sensitivity to erlotinib	approximately 25%	dominantly suppressed the efficacy	near equal potency	approximately 150 fold	more than 150 fold
